Laboratory results from patent US20230137849A1, “USE OF A COMPOUND OF THE DIURETICS CLASS FOR TREATING CANCER” (AZELEAD, priority 2017, published 2023).

Experiments:
4T1 cells = format: cell-based, mouse; settings: highest dose 100 μM, FIG. 8
Procedure: The cytotoxicity tests are carried out in cell culture in 96-well plates, on the 4T1 cell line. The cells are maintained in a DMEM culture medium supplemented with 10% fetal calf serum (control condition) or placed in the presence of an MTT solution (3-(4,5-dimethylthiazol-2-yl)-2,5-diphenyl tetrazolium bromide) at 1 mg/ml in DMEM medium supplemented with 10% fetal calf serum (100 μl per well). The cells are incubated at 37° C. and 5% CO2 for 4 hours. The reaction is stopped by the addition of 100 μl of a solution containing 10% of SDS and 0.01 M of HCl. The cells are placed in an incubator at 37° C. and 5% CO2 for 2 hours. The absorbance is measured between 570 and 590 nm. The negative control is performed on a well without cells, containing 200 μl of a 1 mg/ml solution of MTT diluted in DMEM culture medium supplemented with 10% fetal calf serum. The average of the measurements obtained is compared with the control wells: (average value of the compounds treated/average value of the controls)*100=% of the average value.
The 4T1 cells are derived from tumors of the mammary gland in mice.
In order to study the cytotoxic effects of althiazide in vitro, we analyze the cell death induced by treatment with althiazide by tetrazolium salt labeling MTT (3-(4,5-dimethylthiazol-2-yl)-2,5-diphenyltetrazolium bromide) on 4T1 cells. The amount of living cells in the well is assayed by spectrometry. The results are compared with those obtained after treatment with the control solution (FIG. 8). In this test, we observe a very low mortality of cells after treatment with althiazide (80% of living cells at the highest dose 100 μM). Cells treated with dasatinib have a much higher mortality rate, at much lower doses (80% live cells at the lowest 10 nM dose and 20% live cells at 100 μM).

E-CADHERIN = assay: q-RT-PCR expression of EMT markers in MDA-MB-231 cells under hypoxia: E-CADHERIN; format: cell-based, human; settings: althiazide 100 μM, hypoxic conditions (1% O2), vs control, FIG. 11
Procedure: (§1) The cell cultures are carried out on human breast cancer epithelial cell lines MDA-MB-231 (HTB-26™), resulting from metastases present in a pleural effusion of a patient with a mammary adenocarcinoma. This line is used as a triple negative cancer cell model (no expression of ER-type nuclear estrogen receptors, nuclear progesterone receptors or overexpression of the oncogene encoding HER2 protein (Human Epidermal Growth factor Receptor-2).
The cells were cultured in DMEM medium (Eurobio, Fance) supplemented with 10% fetal calf serum (FCS) (Eurobio, Fance) at 37° C., 5% CO2. The medium was changed every 3 days.
The cells were placed in a controlled atmosphere at 1% oxygen 24 hours before the application of the different treatments.
The expression of the mRNAs is measured by the q-RT-PCR method. The cells were seeded at the density of 500,000 cells/well in 6-well plates. After 24 hours at 37° C., 5% CO2 and 1% O2, the medium was renewed and added the various treatments. RNA was isolated using TRI Reagent® (sigma), assayed and retro-transcribed into complementary DNA using the PrimeScript RT Reagent Kit (Takara). The expression levels of the mRNA of the genes of interest were determined by quantitative PCR (LightCycler® 480 Instrument II) with the primers listed in Table 2: […]
The results are calculated using the Delta Delta Ct (Δ ΔCt) method.

MDA-MB-231 cells = assay: Cytotoxicity potentiation test: MTT cell viability of MDA-MB-231 cells, doxorubicin +/- althiazide; format: cell-based, human
Procedure: as §1
The cell viability is determined via the IC50 index, measured by the MTT technique (2-(4,5-dimethyl-2-thiazolyl)-3,5-diphenyl-2H-tetrazolium bromide) (Mosmann, 1983). This colorimetric test is based on the reduction of yellow tetrazolium salts into insoluble purple formazan crystals in aqueous solution. The spectrophotometric measurement of the absorbance at 570 nm is directly proportional to the number of viable cells
The cells were seeded in 96-well plates at a density of 25,000 cells per well. After 24 h of culture at 37° C., 5% CO2 and 1% O2, the medium was renewed and supplemented with increasing doses of doxorubicin+/−althiazide. Cells were incubated for 24 h at 37° C., 5% CO2 and 1% O2. The MDA-MB-231 cells were washed and then incubated for 1 hour at 37° C. with 100 μl of a 0.5 mg/ml MTT solution prepared in culture medium. The formazan crystals were dissolved in […] and the absorbance measured at 570 nm using the Tecan Sunrise spectrophotometer. The IC50 was determined using the Graphpad Prism 5.0 software. The treatments were carried out in triplicate and the manipulation was carried out 5 times.
The tests are carried out in cell culture in 96-well plates, on the cell line MDA-MB-231. The MDA-MB-231 cells are seeded in 96-well plates at a density of 10,000 cells and incubated 24 h at 37° C., 5% CO2 and 1% O2. The medium is then renewed and added with increasing concentrations of doxorubicin+/−100 μM althiazide. The cells are incubated for an additional 24 hours at 37° C., 5% CO2 and 1% O2. Treatments were made in triplicas and the experiment was repeated 5 times.
A cell viability test is then performed according to the method described in Materials and methods.
Results are normalized to the control condition (FIG. 12)

## C=CCSCC1Nc2cc(Cl)c(S(N)(=O)=O)cc2S(=O)(=O)N1 (racemic) [althiazide]
4T1 cells
  living cells (MTT): 80%
E-CADHERIN
  increase in E-CADHERIN expression: 73%
MDA-MB-231 cells; 100 μM althiazide added to doxorubicin, 24 h, 1% O2
  reduction of the IC50 of doxorubicin: 45%
MDA-MB-231 cells; 100 μM althiazide, doxorubicin between 25 and 2.5 μM, FIG. 12
  increase of the effects of doxorubicin: about 15%
